Reference: US10828269B2, “Reducing muscle atrophy by administering astaxanthin” (FUJI CHEMICAL INDUSTRIES CO., LTD., priority 2004, dated 2020)

Tests used:
[1] = test system: fibrosin 1; experiment: GeneChip gene expression in renal glomerulus; type: in vivo, mouse; settings: probe 1433816_at, 0.02% in diet, 12 weeks
Experimental: (§1) Type II diabetic female db/db mice and non-diabetic db/m were purchased from Clea Japan, Inc. Mice were bred under the conditions with a 12 hours light-dark cycle at a temperature of 21° C. to 25° C. For acclimation, mice were fed CE-2 (Clea Japan, Inc.) with free access to water for one week. The mice were divided into three groups each consisting of 8 mice (non-diabetic db/m, diabetic db/db, and astaxanthin-administered db/db) and each group was bred with feed ad libitum. Mice in astaxanthin-administered group were fed a diet in which 0.02% astaxanthin in terms of free astaxanthin was compounded with CE-2. Each group was bred for 12 weeks, and body weight, blood glucose levels, 8-OHdG levels in urine, albumin levels in urine, and kidney histopathology, were measured. Astaxanthin used here was AstaReal (registered trademark, Fuji Chemical Industry Co., Ltd.) 50F, which is oil composed of astaxanthin fatty acid ester and triglycerides and contains 5% astaxanthin in terms of free astaxanthin.
(§2) After the period of test breeding, kidney was removed and frozen at −80° C. Using an LM200 system (Olympus Corporation), the renal glomerulus was cut from kidney of mice while keeping low temperature. tRNA of renal glomerulus was extracted using tRNA extraction regent “Isogen” (produced by Nippon Gene Co., Ltd.), and then preparation of cRNA and hybridization were performed according to the Affymetrix GeneChip Eukaryotic Small Sample Target Labeling Assay Ver. II.
(§3) (1) Synthesis of first strand cDNA: 1 μL of total RNA solution and 1 of 5 μM T7-Oligo(dT) primer were mixed, heated at 70° C. for 6 minutes, and then cooled at 4° C. for 2 minutes. 3 μL of RT_Premix_1 (1.5 μL DEPC-treated water, 4 μL 5× First strand Buffer, 2 μL DTT (0.1 M), 1.5 μL dNTP Mix (10 mM), 1 μL RNase inhibitor (40 U/μL), and 2 μL Super-Script II (200 U/μL)) was added and reverse transcribed at 42° C. for 1 hour. The sample was heated at 70° C. for 10 minutes to inactivate Super Script II, and then cooled to 4° C. (2) Synthesis of second strand cDNA: 32.5 μl of SS_Premix_1 (91 μL DEPC-treated water, 30 μL 5× Second Strand Buffer, 3 μL dNTP (10 mM), 1 μL E. coli DNA ligase (10 U/μL); 4 μL E. coli DNA polymerase (10 U/μL), and 1 μL RNase H (2 U/μL)) was added to the first strand cDNA solution and allowed to react for 2 hours at 16° C. (3) To the resulting cDNA, was added 1 μL T4 DNA polymerase (5 U/μl) and allowed to react for 10 minutes at 16° C., and purified by ethanol precipitation. (4) In vitro transcription: To the dried double-stranded cDNA pellet, was added 10 μL of reagents (4 μL DEPC-treated water, 4 μL premixed NTPs, 1 μL 10× reaction buffer, and 1 μL 10× enzyme mix), and allowed to react at 37° C. in a water bath for 6 hours. (5) First cycle cRNA was purified using the RNeasy Mini Kit in accordance with the protocol in the handbook (QIAGEN). (6) Subsequently, for the amplification and labeling, the cRNA sample was mixed with random primers (0.2 μg/μL), treated at 70° C. for 10 minutes, cooled on ice for 2 minutes, 5 μL of RT_Premix_2 (5× First Strand Buffer, DTT (0.1 M), dNTP mix (10 mM), RNase inhibitor (40 U/μL), and SuperScript II (200 U/μL) was added, and allowed to react at 42° C. for 1 hour. (7) Next, Second Sstrand cDNA synthesis was carried out by adding 5 μM T7-Oligo(dT) promoter treating at 70° C. for 6 minutes, cooling at 4° C., and adding 62 μL of SS_Premix_2 (43 μL it DEPC-treated water, 15 μL 5× Second Strand Buffer, 1.5 μL dNTP mix (10 mM), and 2 μL E. coli DNA polymerase (10 U/μL)). (8) To the resulting cDNA, was treated added 1 μL of T4 DNA polymerase (5 U/μL), allowed to react at 16° C. for 10 minutes, and purified by ethanol precipitation. […]

[2] = test system: MAD homolog 4 (Dorosophia); experiment: GeneChip gene expression in renal glomerulus; type: in vivo, mouse; settings: probe 1422486_a_at, 0.02% in diet, 12 weeks
Experimental: as §1, §2, §3

[3] = test system: erythropoietin receptor; experiment: GeneChip gene expression in renal glomerulus; type: in vivo, mouse; settings: probe 1423344_at, 0.02% in diet, 12 weeks
Experimental: as §1, §2, §3

[4] = test system: peroxiredoxin 1; experiment: GeneChip gene expression in renal glomerulus; type: in vivo, mouse; settings: probe 1436691_x_at, 0.02% in diet, 12 weeks
Experimental: as §1, §2, §3

[5] = test system: isocitrate dehydrogenase 1 (NADP+), soluble; experiment: GeneChip gene expression in renal glomerulus; type: in vivo, mouse; settings: probe 1419821_s_at, 0.02% in diet, 12 weeks
Experimental: as §1, §2, §3

[6] = test system: Blymphoma Mo-MLV insertion region 1; experiment: GeneChip gene expression in renal glomerulus; type: in vivo, mouse; settings: probe 1448733_at, 0.02% in diet, 12 weeks
Experimental: as §1, §2, §3

[7] = test system: transforming growth factor beta 1 induced transcript 4; experiment: GeneChip gene expression in renal glomerulus; type: in vivo, mouse; settings: 0.02% in diet, 12 weeks
Experimental: as §1, §2, §3

[8] = test system: matrix metalloproteinase 8; experiment: GeneChip gene expression in renal glomerulus; type: in vivo, mouse; settings: probe 1449366_at, 0.02% in diet, 12 weeks
Experimental: as §1, §2, §3

[9] = test system: insulin like growth factor 2 receptor; experiment: GeneChip gene expression in renal glomerulus; type: in vivo, mouse; settings: probe 1424111_at, 0.02% in diet, 12 weeks
Experimental: as §1, §2, §3

[10] = test system: granulin; experiment: GeneChip gene expression in renal glomerulus; type: in vivo, mouse; settings: probe 1438629_x_at, 0.02% in diet, 12 weeks
Experimental: as §1, §2, §3

[11] = test system: secreted posphoprotein 1; experiment: GeneChip gene expression in renal glomerulus; type: in vivo, mouse; settings: probe 1449254_at, 0.02% in diet, 12 weeks
Experimental: as §1, §2, §3

[12] = test system: catenin beta; experiment: GeneChip gene expression in renal glomerulus; type: in vivo, mouse; settings: probe 1420811_a_at, 0.02% in diet, 12 weeks
Experimental: as §1, §2, §3

[13] = test system: diabetic db/db mice; settings: Naito Y. et al, Redox Rep 2002; cited from earlier work

With CC1=C(/C=C/C(C)=C/C=C/C(C)=C/C=C/C=C(C)/C=C/C=C(C)/C=C/C2=C(C)C(=O)C(O)CC2(C)C)C(C)(C)CC(O)C1=O (stereo not drawn) [astaxanthin, 3,3′-dihydroxy-β,β-carotene-4,4′-dione] the “gene expression relative ratio db/db(Ax):db/db” value [1] was 0.31, the “gene expression relative ratio db/db(Ax):db/m” value [1] was 8 and the “gene expression relative ratio db/db(Ax):db/db” value [2] was 1.00. The “gene expression relative ratio db/db(Ax):db/m” value [2] was 27.86, the “gene expression relative ratio db/db(Ax):db/db” value [3] was 2.30 and the “gene expression relative ratio db/db(Ax):db/m” value [3] was 0.71. For the same compound, the “gene expression relative ratio db/db(Ax):db/db” value [4] was 0.14, the “gene expression relative ratio db/db(Ax):db/m” value [4] was 9.19 and the “gene expression relative ratio db/db(Ax):db/db” value [5] was 0.33. The “gene expression relative ratio db/db(Ax):db/m” value [5] was 6.96, the “gene expression relative ratio db/db(Ax):db/db” value [6] was 0.76 and the “gene expression relative ratio db/db(Ax):db/m” value [6] was 8.00. For the same compound, the “gene expression relative ratio db/db(Ax):db/db” value ([7]; probe 1425742_a_at) was 0.33, the “gene expression relative ratio db/db(Ax):db/m” value ([7]; probe 1425742_a_at) was 1.41 and the “gene expression relative ratio db/db(Ax):db/db” value ([7]; probe 1454971_x_at) was 0.57. For the same compound, the “gene expression relative ratio db/db(Ax):db/m” value ([7]; probe 1454971_x_at) was 3.25, the “gene expression intensity ratio db/db(Ax):db/db” value [8] was 2.00 and the “gene expression intensity ratio db/db(Ax):db/m” value [8] was 0.62. For the same compound, the “gene expression intensity ratio db/db(Ax):db/db” value [9] was 0.87, the “gene expression intensity ratio db/db(Ax):db/m” value [9] was 11.31 and the “gene expression relative ratio db/db(Ax):db/db” value [10] was 0.19. For the same compound, the “gene expression relative ratio db/db(Ax):db/m” value [10] was 3.03, the “gene expression relative ratio db/db(Ax):db/db” value [11] was 0.13 and the “gene expression relative ratio db/db(Ax):db/m” value [11] was 0.66. For the same compound, the “gene expression relative ratio db/db(Ax):db/db” value [12] was 0.38, the “gene expression relative ratio db/db(Ax):db/m” value [12] was 12.13 and the blood glucose level [13] was “reduces blood glucose level”. The diabetic nephropathy [13] was “has an effect on the improvement of diabetic nephropathy”.
